Laboratory results published in PMC10349806 (Nature Communications, 2023).
Several values for one entry are separate records, joined by “and”; a condition that tells them apart may be missing. Identical values can stand only once.

Legend:
Format in all cases: cell-based, Plasmodium falciparum
[1] = system: PfCRT variant E207K; experiment: CQ uptake assay, oocytes expressing E207K
Experimental: (§1) Site-directed mutagenesis of PfCRT^Dd2 was performed as described using the megaprimer method with overlap extension[21],[54]. The primer pairs used are listed in Supplementary Table 6. Please note that a codon-optimized and oocyte-adapted version of PfCRT^Dd2 was used[22] (Supplementary Fig. 16). The resulting DNA fragment was cloned into the SP64T expression vector and verified by sequencing.
(§2) Oocytes were obtained as described previously. Briefly, adult (>2 years old) female X. laevis frogs (NASCO) were anesthetized in a cooled solution of ethyl 3-amino benzoate methanesulfonate (0.1%, w/v), followed by a surgical removal of parts of the ovary. The ovary lobes were carefully dissected and small pieces of oocytes were incubated in Ca^2+-free ND96 buffer (96 mM NaCl, 2 mM KCl, 1 mM MgCl2 buffered with 5 mM HEPES/NaOH, pH 7.5) supplemented with collagenase D (0.1%, w/v; Roche), BSA (0.5%, w/v), and 9 mm Na2HPO4 at 18 °C for 14-16 h while gentle shaking. After incubation, the oocytes were carefully washed several times with ND96 buffer (96 mM NaCl, 2 mM KCl, 1.8 mM CaCl2, 1 mM MgCl2 buffered with 5 mM HEPES/NaOH, pH 7.5) supplemented with 100 mg l^−1 gentamycin). Defolliculated and healthy-looking stage V-VI oocytes were manually selected for RNA microinjection. The RNA was generated as following: The codon-optimized sequences of PfCRT variants were cloned into the pSP64T expression vector. After vector linearization using the restriction endonucleases BamHI or SalI (New England Biolabs), transcription was performed using the in vitro SP6 mMessage mMachine Kit (Ambion)[34]. The obtained RNA was kept at −80 °C and diluted with nuclease-free water to a concentration of 0.6 μg μl^−1. Precision-bore glass capillary tubes (3.5-inch glass capillaries; Drummond Scientific Co.) were pulled on a vertical puller (P-87 Flaming/Brown micropipette puller, Sutter Instrument Co.), graduated, and placed on a microinjector (Nanoject II Auto-Nanoliter Injector, Drummond Scientific Co.). 50 nl of nuclease-free water alone (control oocytes) or 50 nl of 0.6 μg μl^−1 RNA were injected under stereomicroscopic control. Injected oocytes were incubated for 46–72 h at 18 °C with twice-daily buffer changes before usage in experiments.
(§3) Drug uptake assays were performed as described previously[21],[22],[24],[34]. […] The direction of radio-labeled drug transport is here from the mostly acidic extracellular solution (pH 4.5 or 6.0, as indicated) into the oocyte cytosol (pH ∼ 7.2), which corresponds to the efflux of drug from the acidic digestive vacuole (pH 5.2) into the parasite cytoplasm (pH 7.2). The topology of PfCRT in the oolemma is such that both the N- and C-terminus face the extracellular milieu[3],[22]. In the parasite, the N- and C-terminus face the lumen of the digestive vacuole. CQ uptake kinetics were performed by incubating oocytes in ND96 buffer adjusted to a pH of 4.5, 5.0, 5.5, or 6.0 and supplemented with 50 nM [^3H]CQ and one of 7 different CQ concentrations (10 µM, 50 µM, 100 µM, 200 µM, 300 µM, 400 µM, 500 µM CQ). The reaction was stopped at the 60 min time point, which is in the linear uptake range[22],[34] (Supplementary Fig. 17). For determination of the amount of drug uptake for each oocyte, the reaction medium was removed and the oocytes were washed three times with 2 ml of ice-cold ND96 buffer. Each oocyte was individually transferred to a scintillation vial containing 5% sodium dodecyl sulfate (200 μl) for lysis. The radioactivity of each sample was measured using a liquid scintillation analyzer Tri-Carb 4910 TR (PerkinElmer). Oocytes that were injected with water instead of RNA were analyzed in parallel, representing the uptake of a drug by diffusion and/or endogenous permeation pathways. The resulting value represents the “background“ level of drug accumulation in oocytes (in-depth discussion in[22]). […]

[2] = system: PfCRT variant E207M; experiment: CQ uptake assay, oocytes expressing E207M
Experimental: as §1, §2, §3

[3] = system: PfCRT variant E207I; experiment: CQ uptake assay, oocytes expressing E207I
Experimental: as §1, §2
Drug uptake assays were performed as described previously[21],[22],[24],[34]. […] The direction of radio-labeled drug transport is here from the mostly acidic extracellular solution (pH 4.5 or 6.0, as indicated) into the oocyte cytosol (pH ∼ 7.2), which corresponds to the efflux of drug from the acidic digestive vacuole (pH 5.2) into the parasite cytoplasm (pH 7.2). The topology of PfCRT in the oolemma is such that both the N- and C-terminus face the extracellular milieu[3],[22]. In the parasite, the N- and C-terminus face the lumen of the digestive vacuole. […] For determination of the amount of drug uptake for each oocyte, the reaction medium was removed and the oocytes were washed three times with 2 ml of ice-cold ND96 buffer. Each oocyte was individually transferred to a scintillation vial containing 5% sodium dodecyl sulfate (200 μl) for lysis. […] Oocytes that were injected with water instead of RNA were analyzed in parallel, representing the uptake of a drug by diffusion and/or endogenous permeation pathways. The resulting value represents the “background“ level of drug accumulation in oocytes (in-depth discussion in[22]). The specific PfCRT-mediated uptake was determined by subtracting the corresponding background value measured in water-injected oocytes from that of PfCRT-expressing oocytes. In all cases, at least three separate experiments were performed on oocytes from different frogs (biological replicate), and for each condition in an experiment, measurements were made from 10 oocytes per treatment. For pH 5.5, 6.0, and 6.5, ND96 was buffered with 5 mM MES/Tris base.

[4] = E207K, 50 µM CQ, 1 h, mean ± SEM
[5] = pH 4.5, individual replicates, Fig 6b
[6] = pH 6.0, individual replicates, Fig 6b
[7] = ratio of activity pH 4.5 / pH 6.0
[8] = E207M, 50 µM CQ, 1 h, mean ± SEM
[9] = E207I, 50 µM CQ, 1 h, mean ± SEM

For `CCN(CC)CCCC(C)Nc1ccnc2cc(Cl)ccc12` (stereo not drawn) [CQ, chloroquine], the “Activity at pH 4.5” value [1, 4] was 1.91 ± 0.10 pmol h-1 oocyte-1, the “Activity at pH 6.0” value [1, 4] was 2.34 ± 0.24 pmol h-1 oocyte-1 and the R-value ([1]; E207K, CQ transport at pH 4.5 / pH 6.0) was 0.83 ± 0.04. For the same molecule, the “E207K transport activity pH 4.5” value [1, 5] was 2.09 pmol oocyte-1 h-1 and 1.67 pmol oocyte-1 h-1 and 1.96 pmol oocyte-1 h-1, the “E207K transport activity pH 6.0” value [1, 6] was 2.92 pmol oocyte-1 h-1 and 1.97 pmol oocyte-1 h-1 and 2.13 pmol oocyte-1 h-1 and the “E207K R-value” [1, 7] was 0.72 and 0.85 and 0.92. The “Activity at pH 4.5” value [2, 8] was 1.85 ± 0.27 pmol h-1 oocyte-1, the “Activity at pH 6.0” value [2, 8] was 2.24 ± 0.41 pmol h-1 oocyte-1 and the R-value ([2]; E207M, CQ transport at pH 4.5 / pH 6.0) was 0.85 ± 0.02. The “E207M transport activity pH 4.5” value [2, 5] was 1.39 pmol oocyte-1 h-1 and 1.26 pmol oocyte-1 h-1 and 2.26 pmol oocyte-1 h-1 and 2.48 pmol oocyte-1 h-1, the “E207M transport activity pH 6.0” value [2, 6] was 1.61 pmol oocyte-1 h-1 and 1.40 pmol oocyte-1 h-1 and 2.48 pmol oocyte-1 h-1 and 3.48 pmol oocyte-1 h-1 and the “E207M R-value” [2, 7] was 0.86 and 0.90 and 0.91 and 0.71. For the same molecule, the “Activity at pH 4.5” value [3, 9] was 2.05 ± 0.22 pmol h-1 oocyte-1, the “Activity at pH 6.0” value [3, 9] was 2.15 ± 0.11 pmol h-1 oocyte-1 and the R-value ([3]; E207I, CQ transport at pH 4.5 / pH 6.0) was 0.95 ± 0.01. For the same molecule, the “E207I transport activity pH 4.5” value [3, 5] was 2.06 pmol oocyte-1 h-1 and 2.31 pmol oocyte-1 h-1, the “E207I transport activity pH 6.0” value [3, 6] was 2.16 pmol oocyte-1 h-1 and 1.90 pmol oocyte-1 h-1 and 2.38 pmol oocyte-1 h-1 and the “E207I R-value” [3, 7] was 0.95 and 0.93 and 0.97.
